The structures appear in SMILES notation.

Drawing on publication doi:10.1101/735704v2, “Selectivity filter instability dominates the low intrinsic activity of the TWIK-1 K2P K^+ Channel” (biorxiv, 2019), this text covers IC50 for 1 compound.

The target of the assay is T1, TWIK-1* (K2P1.1/KCNK1, I293A/I294A trafficking mutant) (Homo sapiens, UniProt O00180, I293A/I294A).
T1 construct: full-length channel with mutated di-isoleucine endocytic retention motif (I293A/I294A), subcloned into pFAW, mRNA-injected Xenopus oocytes, giant excised inside-out patches; homodimer
T1 sequence (O00180 1-336 I293A/I294A): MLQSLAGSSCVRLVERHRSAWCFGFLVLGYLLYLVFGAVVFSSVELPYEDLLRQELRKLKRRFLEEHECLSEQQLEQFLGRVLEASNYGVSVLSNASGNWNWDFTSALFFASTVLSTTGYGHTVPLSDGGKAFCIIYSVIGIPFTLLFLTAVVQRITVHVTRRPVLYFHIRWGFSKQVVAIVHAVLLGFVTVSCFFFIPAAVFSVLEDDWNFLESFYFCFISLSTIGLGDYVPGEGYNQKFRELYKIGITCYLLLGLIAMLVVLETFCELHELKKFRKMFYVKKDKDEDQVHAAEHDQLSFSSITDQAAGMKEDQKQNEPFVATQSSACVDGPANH
Put plainly: giant excised inside-out patch electrophysiology, Xenopus oocytes, Hill fit. The format is cell-based.

The term IC50 denotes the concentration needed to halve the response being measured. A higher IC50 goes with weaker potency. For the compound `CCCCC[N+](CCCCC)(CCCCC)CCCCC` [tetrapentylammonium], the midpoint of inhibition, the IC50, lay at 3.3 ± 0.1 µM.
